Laboratory results published in PubChem BioAssay AID1053138 (Broad Institute, 2014).
Activity calls are given as the source filed them. The rule behind the calls is not given here.

What was measured:
[1] = Trib1 mRNA induction in HepG2 cells, dose response, cell-based, qPCR (AID 1053138); conditions: HepG2 Trib1 mRNA qPCR, 24 h; measured here: Trib1 mRNA max fold induction; stronger effect = higher value
[2] = system: HepG2 Trib1 mRNA qPCR, 24 h; assay: as above

CN1C(=O)c2cc(NC(=O)c3ccc(C(F)(F)F)cc3)ccc2OC[C@@H]2O[C@@H](CC(=O)NC3Cc4ccccc4C3)CC[C@@H]21
fold change [1]: 2.7 | AC50 [2]: 1.7 µM

CN1C(=O)c2cc(NC(=O)c3ccc(C(F)(F)F)cc3)ccc2OC[C@@H]2O[C@H](CC(=O)NC3Cc4ccccc4C3)CC[C@H]21
fold change [1]: 1.3 | AC50 [2]: > 25 µM (inactive)

CN1C(=O)c2cc(NC(=O)c3ccc(C(F)(F)F)cc3)ccc2OC[C@@H]2O[C@H](CC(=O)NC3Cc4ccccc4C3)CC[C@@H]21
fold change [1]: 3.7 | AC50 [2]: 0.31 µM
